Reference: the supplement of paper PMC10307832

How the values were obtained:
Assay in all cases: relative viability (nuclei count vs DMSO), 5 days (fraction); higher = more cells survive
Dovitinib + AZD7762 = compound: CN1CCN(c2ccc3nc(-c4c(N)c5c(F)cccc5[nH]c4=O)[nH]c3c2)CC1 [Dovitinib] + NC(=O)Nc1cc(-c2cccc(F)c2)sc1C(=O)N[C@H]1CCCNC1 [AZD7762] (partner 0.2 µM)
How it was run: (§1)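 Dosing by pin tool came one day after lung cancer cell lines were seeded in 1536-well plates, using either one drug or a fixed anchor-drug dose plus five library-drug doses (not always all listed) in √10 steps. After 5 days, nuclei were counted on 4× images. Relative viability is treated-well nuclei count divided by vehicle-well nuclei count, and values are medians of duplicate plates.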

Dovitinib + Pemetrexed = compound: CN1CCN(c2ccc3nc(-c4c(N)c5c(F)cccc5[nH]c4=O)[nH]c3c2)CC1 [Dovitinib] + Nc1nc2[nH]cc(CCc3ccc(C(=O)N[C@@H](CCC(=O)O)C(=O)O)cc3)c2c(=O)[nH]1 [Pemetrexed] (partner 0.2 µM)
How it was run: as §1

Dovitinib + OSI-027 = compound: CN1CCN(c2ccc3nc(-c4c(N)c5c(F)cccc5[nH]c4=O)[nH]c3c2)CC1 [Dovitinib] + COc1cccc2cc(-c3nc([C@H]4CC[C@H](C(=O)O)CC4)n4ncnc(N)c34)[nH]c12 [OSI-027] (partner 0.5 µM)
How it was run: as §1

Dovitinib + Foretinib = compound: CN1CCN(c2ccc3nc(-c4c(N)c5c(F)cccc5[nH]c4=O)[nH]c3c2)CC1 [Dovitinib] + COc1cc2c(Oc3ccc(NC(=O)C4(C(=O)Nc5ccc(F)cc5)CC4)cc3F)ccnc2cc1OCCCN1CCOCC1 [Foretinib] (partner 0.25 µM)
How it was run: as §1

Cell Line: HCC-827
- relative viability (Dovitinib + AZD7762; first compound 0.02 µM): 0.203
- relative viability (Dovitinib + AZD7762; first compound 0.06325 µM): 0.213
- relative viability (Dovitinib + AZD7762; first compound 0.2 µM): 0.244
- relative viability (Dovitinib + AZD7762; first compound 0.6325 µM): 0.237
- relative viability (Dovitinib + AZD7762; first compound 2 µM): 0.212
- relative viability (Dovitinib + Pemetrexed; first compound 0.02 µM): 0.259
- relative viability (Dovitinib + Pemetrexed; first compound 0.06325 µM): 0.119
- relative viability (Dovitinib + Pemetrexed; first compound 0.2 µM): 0.245
- relative viability (Dovitinib + Pemetrexed; first compound 0.6325 µM): 0.264
- relative viability (Dovitinib + Pemetrexed; first compound 2 µM): 0.25
- relative viability (Dovitinib + OSI-027; first compound 0.02 µM): 0.797
- relative viability (Dovitinib + OSI-027; first compound 0.06325 µM): 0.791
- relative viability (Dovitinib + OSI-027; first compound 0.2 µM): 0.818
- relative viability (Dovitinib + OSI-027; first compound 0.6325 µM): 0.833
- relative viability (Dovitinib + OSI-027; first compound 2 µM): 0.759
- relative viability (Dovitinib + Foretinib; first compound 0.02 µM): 0.983
- relative viability (Dovitinib + Foretinib; first compound 0.06325 µM): 1.07
- relative viability (Dovitinib + Foretinib; first compound 0.2 µM): 1.14
- relative viability (Dovitinib + Foretinib; first compound 0.6325 µM): 1.09
- relative viability (Dovitinib + Foretinib; first compound 2 µM): 1.09

Cell Line: HCC-78
- relative viability (Dovitinib + AZD7762; first compound 0.02 µM): 0.71
- relative viability (Dovitinib + AZD7762; first compound 0.06325 µM): 0.481
- relative viability (Dovitinib + AZD7762; first compound 0.2 µM): 0.674
- relative viability (Dovitinib + AZD7762; first compound 0.6325 µM): 0.699
- relative viability (Dovitinib + AZD7762; first compound 2 µM): 0.489
- relative viability (Dovitinib + Pemetrexed; first compound 0.02 µM): 0.914
- relative viability (Dovitinib + Pemetrexed; first compound 0.06325 µM): 0.934
- relative viability (Dovitinib + Pemetrexed; first compound 0.2 µM): 0.931
- relative viability (Dovitinib + Pemetrexed; first compound 0.6325 µM): 0.889
- relative viability (Dovitinib + Pemetrexed; first compound 2 µM): 0.865
- relative viability (Dovitinib + OSI-027; first compound 0.02 µM): 0.384
- relative viability (Dovitinib + OSI-027; first compound 0.06325 µM): 0.544
- relative viability (Dovitinib + OSI-027; first compound 0.2 µM): 0.373
- relative viability (Dovitinib + OSI-027; first compound 0.6325 µM): 0.403
- relative viability (Dovitinib + OSI-027; first compound 2 µM): 0.388
- relative viability (Dovitinib + Foretinib; first compound 0.02 µM): 0.632
- relative viability (Dovitinib + Foretinib; first compound 0.06325 µM): 0.528
- relative viability (Dovitinib + Foretinib; first compound 0.2 µM): 0.535
- relative viability (Dovitinib + Foretinib; first compound 0.6325 µM): 0.599
- relative viability (Dovitinib + Foretinib; first compound 2 µM): 0.623

Cell Line: NCI-H2085
- relative viability (Dovitinib + AZD7762; first compound 0.02 µM): 1.07
- relative viability (Dovitinib + AZD7762; first compound 0.06325 µM): 1.13
- relative viability (Dovitinib + AZD7762; first compound 0.2 µM): 1.04
- relative viability (Dovitinib + AZD7762; first compound 0.6325 µM): 0.998
- relative viability (Dovitinib + AZD7762; first compound 2 µM): 1.04
- relative viability (Dovitinib + Pemetrexed; first compound 0.02 µM): 0.941
- relative viability (Dovitinib + Pemetrexed; first compound 0.06325 µM): 0.991
- relative viability (Dovitinib + Pemetrexed; first compound 0.2 µM): 1.03
- relative viability (Dovitinib + Pemetrexed; first compound 0.6325 µM): 0.871
- relative viability (Dovitinib + Pemetrexed; first compound 2 µM): 0.958
- relative viability (Dovitinib + OSI-027; first compound 0.02 µM): 0.672
- relative viability (Dovitinib + OSI-027; first compound 0.06325 µM): 0.71
- relative viability (Dovitinib + OSI-027; first compound 0.2 µM): 0.734
- relative viability (Dovitinib + OSI-027; first compound 0.6325 µM): 0.829
- relative viability (Dovitinib + OSI-027; first compound 2 µM): 0.839
- relative viability (Dovitinib + Foretinib; first compound 0.02 µM): 1.01
- relative viability (Dovitinib + Foretinib; first compound 0.06325 µM): 1.16
- relative viability (Dovitinib + Foretinib; first compound 0.2 µM): 1.01
- relative viability (Dovitinib + Foretinib; first compound 0.6325 µM): 0.961
- relative viability (Dovitinib + Foretinib; first compound 2 µM): 1.01

Cell Line: PC-14
- relative viability (Dovitinib + AZD7762; first compound 0.02 µM): 0.309
- relative viability (Dovitinib + AZD7762; first compound 0.06325 µM): 0.343
- relative viability (Dovitinib + AZD7762; first compound 0.2 µM): 0.385
- relative viability (Dovitinib + AZD7762; first compound 0.6325 µM): 0.351
- relative viability (Dovitinib + AZD7762; first compound 2 µM): 0.357
- relative viability (Dovitinib + Pemetrexed; first compound 0.02 µM): 0.128
- relative viability (Dovitinib + Pemetrexed; first compound 0.06325 µM): 0.134
- relative viability (Dovitinib + Pemetrexed; first compound 0.2 µM): 0.121
- relative viability (Dovitinib + Pemetrexed; first compound 0.6325 µM): 0.141
- relative viability (Dovitinib + Pemetrexed; first compound 2 µM): 0.132
- relative viability (Dovitinib + OSI-027; first compound 0.02 µM): 0.827
- relative viability (Dovitinib + OSI-027; first compound 0.06325 µM): 0.804
- relative viability (Dovitinib + OSI-027; first compound 0.2 µM): 1.02
- relative viability (Dovitinib + OSI-027; first compound 0.6325 µM): 0.751
- relative viability (Dovitinib + OSI-027; first compound 2 µM): 0.933
- relative viability (Dovitinib + Foretinib; first compound 0.02 µM): 0.976
- relative viability (Dovitinib + Foretinib; first compound 0.06325 µM): 0.91
- relative viability (Dovitinib + Foretinib; first compound 0.2 µM): 0.945
- relative viability (Dovitinib + Foretinib; first compound 0.6325 µM): 0.945
- relative viability (Dovitinib + Foretinib; first compound 2 µM): 0.914
